From patent US20090042874A1, “ANTIDEPRESSANT HETEROARYL DERIVATIVES OF HETEROCYCLE-FUSED BENZODIOXANS” (WYETH, priority 2007, published 2009) come the findings set out here.

One assay addresses T1, serotonin transporter (Rattus norvegicus, UniProt P31652).
T1 construct: displace ^3H-paroxetine from male rat frontal cortical membranes; from tissue; host or cells: male rat frontal cortex membranes
In words: Displacement of 3H-paroxetine from male rat frontal cortical membranes (serotonin transporter affinity). Conditions: 3H-paroxetine displacement, read-out: 5-HT Transporter Affinity Ki. The format is binding. The text has this: Affinity of Compounds of the Invention for the Serotonin Transporter
(In a radioligand displacement assay an active substance lowers the binding of a labelled ligand.)

The target of the next assay is T2, human 5HT1A receptors (Homo sapiens, UniProt P08908).
T2 construct: expressed in transfected cells; host or cells: CHO cells
T2 sequence (P08908 1-422): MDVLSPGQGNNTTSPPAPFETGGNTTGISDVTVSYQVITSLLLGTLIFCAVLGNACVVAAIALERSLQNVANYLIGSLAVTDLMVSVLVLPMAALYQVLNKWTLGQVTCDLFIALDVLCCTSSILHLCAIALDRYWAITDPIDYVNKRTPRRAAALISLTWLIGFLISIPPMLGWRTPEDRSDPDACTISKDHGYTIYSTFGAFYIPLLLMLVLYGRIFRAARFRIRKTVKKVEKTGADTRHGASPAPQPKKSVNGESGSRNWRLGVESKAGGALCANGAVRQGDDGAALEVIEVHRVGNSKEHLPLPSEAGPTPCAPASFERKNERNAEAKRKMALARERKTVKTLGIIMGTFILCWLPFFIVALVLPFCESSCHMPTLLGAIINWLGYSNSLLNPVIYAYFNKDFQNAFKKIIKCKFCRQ
Description: Displacement of [3H] 8-OH-DPAT from 5HT1A receptor, CHO cells stably transfected with human 5HT1A receptors. The format is binding. Conditions: [3H] 8-OH-DPAT displacement, CHO cells with human 5HT1A; read-out: 5HT1A Receptor Affinity Ki. The text has this: High affinity for the serotonin 5HT1A receptor was established by testing the claimed compound's ability to displace [^3H] 8-OH-DPAT (dipropylamino-tetralin) from the 5HT1A serotonin receptor following a modification of the procedure of Hall et al., J. Neurochem. 44, 1685 (1985) which utilizes CHO cells stably transfected with human 5HT1A receptors.

pKi: −log10 of the molar value. Counter-ions that a name gives are not always drawn.

T1 sequence (P31652 whole entry): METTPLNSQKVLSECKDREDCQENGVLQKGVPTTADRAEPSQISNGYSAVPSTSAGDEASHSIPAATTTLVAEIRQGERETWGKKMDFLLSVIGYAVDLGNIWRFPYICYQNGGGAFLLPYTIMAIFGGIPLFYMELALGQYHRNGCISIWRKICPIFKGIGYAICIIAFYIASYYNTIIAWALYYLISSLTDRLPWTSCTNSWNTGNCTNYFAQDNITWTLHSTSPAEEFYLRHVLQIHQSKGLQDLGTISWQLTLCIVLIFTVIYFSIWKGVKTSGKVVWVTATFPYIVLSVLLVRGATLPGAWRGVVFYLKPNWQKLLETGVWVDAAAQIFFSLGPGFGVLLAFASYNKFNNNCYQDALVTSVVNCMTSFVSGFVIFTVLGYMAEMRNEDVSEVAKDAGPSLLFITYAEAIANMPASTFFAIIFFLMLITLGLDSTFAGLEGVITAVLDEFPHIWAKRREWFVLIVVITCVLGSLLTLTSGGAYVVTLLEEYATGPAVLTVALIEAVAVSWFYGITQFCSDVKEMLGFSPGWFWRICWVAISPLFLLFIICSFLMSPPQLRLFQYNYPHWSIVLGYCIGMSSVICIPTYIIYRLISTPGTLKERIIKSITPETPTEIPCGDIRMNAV

One may read the pKi as −log10 of the Ki, conventionally taken in molar units. Regarding `Cc1ccc2c3c(ccc2n1)OC[C@H](CN1CCC(Oc2ccc4c(c2)NC(=O)CC4)CC1)O3` [Example 17, 7-[(1-{[(2S)-8-Methyl-2,3-dihydro[1,4]dioxino[2,3-f]quinolin-2-yl]methyl}piperidin-4-yl)oxy]-3,4-dihydroquinolin-2(1H)-one dihydrochloride salt], the values for the pKi at serotonin transporter and at human 5HT1A receptors were 7.42 and 9.55, respectively.
In the same order, the values of `Cc1ccc2c3c(ccc2n1)OC[C@H](CN1CCCC(Cc2ccc4c(c2)NC(=O)CO4)C1)O3` (stereo partly drawn) [Example 16, 6-[(1-{[(2S)-8-Methyl-2,3-dihydro[1,4]dioxino[2,3-f]quinolin-2-yl]methyl}piperidin-3-yl)methyl]-2H-1,4-benzoxazin-3(4H)-one dihydrochloride salt] are 8.30 and 9.40.
In the same order, the values of `Cc1ccc2c3c(ccc2n1)OC[C@H](CN1CCC(Oc2ccc4c(c2)N(C)C(=O)CO4)CC1)O3` [Example 5, 4-Methyl-6-[(1-{[(2S)-8-methyl-2,3-dihydro[1,4]dioxino[2,3-f]quinolin-2-yl]methyl}piperidin-4-yl)oxy]-2H-1,4-benzoxazin-3(4H)-one dihydrochloride salt] are 7.96 and 9.27.
In the same order, the values of `Cc1ccc2c3c(ccc2n1)OC[C@H](CN1CC[C@@H](Oc2ccc4c(c2)NC(=O)CO4)C1)O3` [Example 9, 6-{[(3R)-1-{[(2S)-8-Methyl-2,3-dihydro[1,4]dioxino[2,3-f]quinolin-2-yl]methyl}pyrrolidin-3-yl]oxy}-2H-1,4-benzoxazin-3(4H)-one dihydrochloride salt] are 8.35 and 8.45.
For the compound `Cc1ccc2c3c(ccc2n1)OC[C@H](CNCCCCOc1ccc2c(c1)NC(=O)CO2)O3` [Example 6, 6-[4-({[(2S)-8-Methyl-2,3-dihydro[1,4]dioxino[2,3-f]quinolin-2-yl]methyl}amino)butoxy]-2H-1,4-benzoxazin-3(4H)-one dihydrochloride salt], the figures for the pKi at serotonin transporter and on human 5HT1A receptors were 7.92 and 9.60, respectively.
The corresponding values for `Cc1ccc2c3c(ccc2n1)OC[C@H](CN1CC[C@H](Oc2ccc4c(c2)NC(=O)CO4)C1)O3` [Example 8, 6-{[(3S)-1-{[(2S)-8-Methyl-2,3-dihydro[1,4]dioxino[2,3-f]quinolin-2-yl]methyl}pyrrolidin-3-yl]oxy}-2H-1,4-benzoxazin-3(4H)-one dihydrochloride salt] are 7.74 and 8.83.
The corresponding values for `Cc1ccc2c3c(ccc2n1)OC[C@H](CN1CCC(CCc2ccc4c(c2)NC(=O)CO4)CC1)O3` [Example 14, 6-[2-(1-{[(2S)-8-Methyl-2,3-dihydro[1,4]dioxino[2,3-f]quinolin-2-yl]methyl}piperidin-4-yl)ethyl]-2H-1,4-benzoxazin-3(4H)-one dihydrochloride salt] are 8.58 and 9.23.
